Measurements taken from patent publication US20110135671A1, “PURINE DERIVATIVES FOR USE IN THE TREATMENT OF ALLERGIC, INFLAMMATORY AND INFECTIOUS DISEASES” (GLAXOSMITHKLINE LLC, priority 2008, published 2011).
Structures can show the parent of a compound that is named as a salt.

Test system: Interferon-α
Assay: Induction of Interferon-α using cryopreserved human PBMCs
Format: cell-based
Conditions: PBMC, 24 h, normalised to 1 uM resiquimod, read-out: mean pEC50 for induction of Interferon-α (converted)
Description: Assay for the Induction of Interferon-α using Cryopreserved Human Peripheral Blood Mononuclear Cells (PBMCs)
Compounds were dissolved in DMSO. Serial 2-fold dilutions with DMSO were prepared and 0.25 μl dispensed into 384-well clear Greiner polypropylene plates.
Blood samples of up to 200 ml were obtained from healthy human donors. Whole blood in 25 ml volumes was overlaid onto 15 ml Ficoll gradients in Leucosep tubes, and centrifuged at 1000 g for 20 min. Cells in the band at the plasma/histopaque interface were carefully removed and washed twice with PBS (centrifuged at 400 g for 5 min to harvest). The final pellet was resuspended in freezing medium (90% Heat-inactivated serum, 10% DMSO) to a cell concentration of 4×10^7 cells/ml. The resuspended cells were then cryopreserved (frozen) using a rate controlled freezer, and stored at −140° C. for up to 4 months.
Incubation and Assay for Interferon-α
Immediately prior to assay, vials of cryopreserved (frozen) PBMCs were thawed rapidly in a water bath at 37° C. A 1:10 dilution of the cells in trypan blue was prepared and counted. The PBMCs were then diluted in growth media [RPMI 1640 containing 10% fetal calf serum (invitrogen), Penicillin+Streptavidin (Gibco cat. # 25030-024, 1:50), L-Glutamine 2 mM, and 1000 units/ml recombinant human IFN-gamma (Preprotech catalogue #300-02)] to a density of 1×10^6 cells/ml, and 50 ul/well dispensed to 384-well clear Greiner polypropylene plates containing 0.25 μl DMSO or test compound in 0.25 μl DMSO. […] Plates were incubated for 24 h at 37° C. in 5% CO2.
A multi-isoform immunoassay was used to quantify IFN-α in PBMC supernatants. Rabbit polyclonal antibody against human IFN-α (catalogue number 31101, Stratech Scientific) was diluted 1:10000 in assay buffer (RPMI 1640 containing 10% fetal calf serum, Invitrogen) and 20 μl was added to each well of an MSD (Meso-Scale Discovery) single small-spot 384-well GAR (goat anti-rabbit antibody coated) plate. The plate was incubated for 1 h at room temperature with vigorous shaking. Following three washes with PBS, 20 μl of cell supernatant were added to each well of the plate. The plate was then incubated for 1 h at room temperature with vigorous shaking. A pair of monoclonal antibodies to IFN-α (catalogue numbers 21100 and 21112, Stratech Scientific) were labelled with sulfo-TAG (MSD), diluted 1:1000 in assay buffer and 20 μl added to each well of the plate. The plate was further incubated for 1 h at room temperature with vigorous shaking. Following three washes with PBS, 30 μl of ×2 T buffer (MSD) was added to each well and the plate was read on an MSD Sector 6000 plate reader.
Data were normalised to internal plate controls of 1 uM resiquimod (n=16) and DMSO (n=16). pEC50 values were derived by 4-parameter curve fit with IRLS in ActivityBase, from 11-point, two-fold serial dilution of test compounds.

Structure (SMILES)	EC50
CCCCOc1nc(N)c2[nH]c(=O)n(CCN3CCN(C4CCCCC4)CC3)c2n1 [Example 2, 6-Amino-2-(butyloxy)-9-[2-(4-cyclohexyl-1-piperazinyl)ethyl]-7,9-dihydro-8H-purin-8-one dihydrochloride salt]	< 3.16 µM
CCCCNc1nc(N)c2[nH]c(=O)n(CCN3CCN(C)CC3)c2n1 [Example 3, 6-Amino-2-(butylamino)-9-[2-(4-methyl-1-piperazinyl)ethyl]-7,9-dihydro-8H-purin-8-one]	< 3.16 µM
CCCCNc1nc(N)c2[nH]c(=O)n(CCN3CCN(C(C)C)CC3)c2n1 [Example 4, 6-Amino-2-(butylamino)-9-{2-[4-(1-methylethyl)-1-piperazinyl]ethyl}-7,9-dihydro-8H-purin-8-one]	< 3.16 µM
CCCCNc1nc(N)c2[nH]c(=O)n(CCN3CCN(C4CCCCC4)CC3)c2n1 [Example 5, 6-Amino-2-(butylamino)-9-[2-(4-cyclohexyl-1-piperazinyl)ethyl]-7,9-dihydro-8H-purin-8-one]	< 3.16 µM
CCCCOc1nc(N)c2[nH]c(=O)n(CCCN3CCN(CC)CC3)c2n1 [Example 7, 6-Amino-2-(butyloxy)-9-[3-(4-ethyl-1-piperazinyl)propyl]-7,9-dihydro-8H-purin-8-one]	< 3.16 µM
CCCCOc1nc(N)c2[nH]c(=O)n(CCCN3CCN(CCC)CC3)c2n1 [Example 8, 6-Amino-2-(butyloxy)-9-[3-(4-propyl-1-piperazinyl)propyl]-7,9-dihydro-8H-purin-8-one]	< 3.16 µM
CCCCOc1nc(N)c2[nH]c(=O)n(CCCN3CCN(C(C)C)CC3)c2n1 [Example 9, 6-Amino-2-(butyloxy)-9-{3-[4-(1-methylethyl)-1-piperazinyl]propyl}-7,9-dihydro-8H-purin-8-one]	< 3.16 µM
CCCCOc1nc(N)c2[nH]c(=O)n(CCCN3CCN(CCCC)CC3)c2n1 [Example 10, 6-Amino-2-(butyloxy)-9-[3-(4-butyl-1-piperazinyl)propyl]-7,9-dihydro-8H-purin-8-one]	< 3.16 µM
CCCCOc1nc(N)c2[nH]c(=O)n(CCCN3CCN(CC(C)C)CC3)c2n1 [Example 11, 6-Amino-2-(butyloxy)-9-{3-[4-(2-methylpropyl)-1-piperazinyl]propyl}-7,9-dihydro-8H-purin-8-one]	< 3.16 µM
CCCCOc1nc(N)c2[nH]c(=O)n(CCCN3CCN(C(C)(C)C)CC3)c2n1 [Example 12, 6-Amino-2-(butyloxy)-9-{3-[4-(1,1-dimethylethyl)-1-piperazinyl]propyl}-7,9-dihydro-8H-purin-8-one]	< 3.16 µM
CCCCOc1nc(N)c2[nH]c(=O)n(CCCN3CCN(CC4CC4)CC3)c2n1 [Example 13, 6-Amino-2-(butyloxy)-9-{3-[4-(cyclopropylmethyl)-1-piperazinyl]propyl}-7,9-dihydro-8H-purin-8-one]	< 3.16 µM
CCCCOc1nc(N)c2[nH]c(=O)n(CCCN3CCN(C4CCCC4)CC3)c2n1 [Example 14, 6-Amino-2-(butyloxy)-9-[3-(4-cyclopentyl-1-piperazinyl)propyl]-7,9-dihydro-8H-purin-8-one]	< 3.16 µM
CCCCOc1nc(N)c2[nH]c(=O)n(CCCN3CCN(C4CCCCC4)CC3)c2n1 [Example 15, 6-Amino-2-(butyloxy)-9-[3-(4-cyclohexyl-1-piperazinyl)propyl]-7,9-dihydro-8H-purin-8-one]	< 3.16 µM
CCCCNc1nc(N)c2[nH]c(=O)n(CCCN3CCN(C)CC3)c2n1 [Example 16, 6-Amino-2-(butylamino)-9-[3-(4-methyl-1-piperazinyl)propyl]-7,9-dihydro-8H-purin-8-one]	< 3.16 µM
CCCCNc1nc(N)c2[nH]c(=O)n(CCCN3CCN(CC)CC3)c2n1 [Example 17, 6-Amino-2-(butylamino)-9-[3-(4-ethyl-1-piperazinyl)propyl]-7,9-dihydro-8H-purin-8-one]	< 3.16 µM
CCCCNc1nc(N)c2[nH]c(=O)n(CCCN3CCN(CCC)CC3)c2n1 [Example 18, 6-Amino-2-(butylamino)-9-[3-(4-propyl-1-piperazinyl)propyl]-7,9-dihydro-8H-purin-8-one]	< 3.16 µM

Structure (SMILES)	EC50
CCCCNc1nc(N)c2[nH]c(=O)n(CCCN3CCN(C(C)C)CC3)c2n1 [Example 19, 6-Amino-2-(butylamino)-9-{3-[4-(1-methylethyl)-1-piperazinyl]propyl}-7,9-dihydro-8H-purin-8-one]	< 3.16 µM
CCCCNc1nc(N)c2[nH]c(=O)n(CCCN3CCN(CCCC)CC3)c2n1 [Example 20, 6-Amino-2-(butylamino)-9-[3-(4-butyl-1-piperazinyl)propyl]-7,9-dihydro-8H-purin-8-one]	< 3.16 µM
CCCCNc1nc(N)c2[nH]c(=O)n(CCCN3CCN(CC(C)C)CC3)c2n1 [Example 21, 6-Amino-2-(butylamino)-9-{3-[4-(2-methylpropyl)-1-piperazinyl]propyl}-7,9-dihydro-8H-purin-8-one]	< 3.16 µM
CCCCNc1nc(N)c2[nH]c(=O)n(CCCN3CCN(C(C)(C)C)CC3)c2n1 [Example 22, 6-Amino-2-(butylamino)-9-{3-[4-(1,1-dimethylethyl)-1-piperazinyl]propyl}-7,9-dihydro-8H-purin-8-one]	< 3.16 µM
CCCCNc1nc(N)c2[nH]c(=O)n(CCCN3CCN(CC4CC4)CC3)c2n1 [Example 23, 6-Amino-2-(butylamino)-9-{3-[4-(cyclopropylmethyl)-1-piperazinyl]propyl}-7,9-dihydro-8H-purin-8-one]	< 3.16 µM
CCCCNc1nc(N)c2[nH]c(=O)n(CCCN3CCN(C4CCCC4)CC3)c2n1 [Example 24, 6-Amino-2-(butylamino)-9-[3-(4-cyclopentyl-1-piperazinyl)propyl]-7,9-dihydro-8H-purin-8-one]	< 3.16 µM
CCCCNc1nc(N)c2[nH]c(=O)n(CCCN3CCN(C4CCCCC4)CC3)c2n1 [Example 25, 6-Amino-2-(butylamino)-9-[3-(4-cyclohexyl-1-piperazinyl)propyl]-7,9-dihydro-8H-purin-8-one]	< 3.16 µM
CCCCOc1nc(N)c2[nH]c(=O)n(CCCCN3CCN(CCC)CC3)c2n1 [Example 28, 6-Amino-2-(butyloxy)-9-[4-(4-propyl-1-piperazinyl)butyl]-7,9-dihydro-8H-purin-8-one]	< 3.16 µM
CCCCOc1nc(N)c2[nH]c(=O)n(CCCCN3CCN(CCCC)CC3)c2n1 [Example 30, 6-Amino-2-(butyloxy)-9-[4-(4-butyl-1-piperazinyl)butyl]-7,9-dihydro-8H-purin-8-one]	< 3.16 µM
CCCCOc1nc(N)c2[nH]c(=O)n(CCCCN3CCN(CC(C)C)CC3)c2n1 [Example 31, 6-Amino-2-(butyloxy)-9-{4-[4-(2-methylpropyl)-1-piperazinyl]butyl}-7,9-dihydro-8H-purin-8-one]	< 3.16 µM
CCCCOc1nc(N)c2[nH]c(=O)n(CCCCN3CCN(CC4CC4)CC3)c2n1 [Example 33, 6-Amino-2-(butyloxy)-9-{4-[4-(cyclopropylmethyl)-1-piperazinyl]butyl}-7,9-dihydro-8H-purin-8-one]	< 3.16 µM
CCCCOc1nc(N)c2[nH]c(=O)n(CCCCN3CCN(C4CCCC4)CC3)c2n1 [Example 34, 6-Amino-2-(butyloxy)-9-[4-(4-cyclopentyl-1-piperazinyl)butyl]-7,9-dihydro-8H-purin-8-one]	< 3.16 µM
CCCCOc1nc(N)c2[nH]c(=O)n(CCCCN3CCN(C4CCCCC4)CC3)c2n1 [Example 35, 6-Amino-2-(butyloxy)-9-[4-(4-cyclohexyl-1-piperazinyl)butyl]-7,9-dihydro-8H-purin-8-one]	< 3.16 µM
CCCCNc1nc(N)c2[nH]c(=O)n(CCCCN3CCN(CC)CC3)c2n1 [Example 36, 6-Amino-2-(butylamino)-9-[4-(4-ethyl-1-piperazinyl)butyl]-7,9-dihydro-8H-purin-8-one]	< 3.16 µM
CCCCNc1nc(N)c2[nH]c(=O)n(CCCCN3CCN(CCC)CC3)c2n1 [Example 37, 6-Amino-2-(butylamino)-9-[4-(4-propyl-1-piperazinyl)butyl]-7,9-dihydro-8H-purin-8-one]	< 3.16 µM
CCCCNc1nc(N)c2[nH]c(=O)n(CCCCN3CCN(C(C)C)CC3)c2n1 [Example 38, 6-Amino-2-(butylamino)-9-{4-[4-(1-methylethyl)-1-piperazinyl]butyl}-7,9-dihydro-8H-purin-8-one]	< 3.16 µM
